# Assays:
# Format in all cases: cell-based, human
# heavy OG cells [1] = experiment: Proliferation of heavy OG cells cultured in IGF2 inhibitor-treated medium
# Protocol: First, among the OG cells obtained in the step iii) of [Example 12], the heavy cells were cultured for 3 days while treating the medium with chromeceptin at a concentration of 2 nM to 2 μM, in the course of inducing differentiation into a chondrogenic pellet according to the step iv). Then, morphology of the cells was observed over the treatment time, and the number of the proliferated cells was counted.
# heavy OG cells [2] = experiment: Chondrogenic differentiation markers of heavy OG cells cultured in IGF2 inhibitor-treated medium
# Description: Accordingly, heavy OG cells were induced to differentiate into a chondrogenic pellet while performing treatment with chromeceptin under the conditions of Example <16-1>, during which the OG cells were obtained, and mRNA was extracted therefrom and used to synthesize cDNA. Using the synthesized cDNA as a template, expression levels of SOX9, COL2A1, COL10A1, and IGF2 were quantitatively analyzed.
# heavy OG cells [3] = experiment: Chondrocyte markers in chondrogenic pellet differentiated in IGF2 inhibitor-treated medium; details: 2 mM chromeceptin, treatment after aggregation compared with before aggregation
# Protocol: First, among the OG cells obtained in the step iii) of [Example 12], the heavy cells were cultured for 3 days while treating the medium with chromeceptin at a concentration of 2 mM, in the course of inducing differentiation into a chondrogenic pellet according to the step iv). Experimental groups were divided into two groups, that is, the experimental group (before aggregation) in which differentiation into chondrocytes had been induced by performing treatment with chromeceptin from the beginning of formation of a chondrogenic pellet, and the experimental group (after aggregation) in which differentiation into chondrocytes had been induced by performing treatment with chromeceptin from 7 days after induction of formation of a chondrogenic pellet. The differentiated chondrogenic pellets were respectively obtained therefrom. Then, mRNA was extracted from each of the obtained chondrogenic pellets, and the expression levels of COL2A1, SOX9, COL1A1 and COL10A1 were checked.
smiles,measurement,setting,value
CN(C)c1ccc2c(c1)OC(N)=C(C#N)C2c1cccc(C(F)(F)F)c1 (stereo not drawn) [chromeceptin],decrease of the number of OG cells,"heavy OG cells [1]; 2 μM chromeceptin, after 72 hours, compared with untreated control",≥ 3 times
same,degree of proliferation of the cells,"heavy OG cells [1]; chromeceptin 2 nM to 2 μM, 3 days",decreases with increased treatment concentration
same,expression level of SOX9,"heavy OG cells [2]; 2 μM chromeceptin, compared with untreated control (Normal Ctrl)",remarkably increases
same,expression level of IGF2 in the OG cells,heavy OG cells [2]; chromeceptin 2 nM to 2 μM,decreases with increased treatment concentration
same,expression level of SOX9,heavy OG cells [2]; chromeceptin 2 nM to 2 μM,significantly increases with increased treatment concentration
same,expression level of SOX9 in chondrogenic pellet,heavy OG cells [3],significantly increased
